Test results from patent US20250034216A1, “STEREOSELECTIVE COVALENT LIGANDS FOR ONCOGENIC AND IMMUNOLOGICAL PROTEINS” (The Scripps Research Institute, priority 2021, published 2025).

Legend:
MTMR12_C152 = target: T1, MTMR12_C152 (Homo sapiens, UniProt Q9C0I1); test: IA-DTB cysteine engagement; assay type: binding; details: 22Rv1 cells, 20 μM probe, 1 h, relative to DMSO
T1 construct: endogenous in cells; host or cells: 22Rv1
T1 sequence (Q9C0I1 1-747): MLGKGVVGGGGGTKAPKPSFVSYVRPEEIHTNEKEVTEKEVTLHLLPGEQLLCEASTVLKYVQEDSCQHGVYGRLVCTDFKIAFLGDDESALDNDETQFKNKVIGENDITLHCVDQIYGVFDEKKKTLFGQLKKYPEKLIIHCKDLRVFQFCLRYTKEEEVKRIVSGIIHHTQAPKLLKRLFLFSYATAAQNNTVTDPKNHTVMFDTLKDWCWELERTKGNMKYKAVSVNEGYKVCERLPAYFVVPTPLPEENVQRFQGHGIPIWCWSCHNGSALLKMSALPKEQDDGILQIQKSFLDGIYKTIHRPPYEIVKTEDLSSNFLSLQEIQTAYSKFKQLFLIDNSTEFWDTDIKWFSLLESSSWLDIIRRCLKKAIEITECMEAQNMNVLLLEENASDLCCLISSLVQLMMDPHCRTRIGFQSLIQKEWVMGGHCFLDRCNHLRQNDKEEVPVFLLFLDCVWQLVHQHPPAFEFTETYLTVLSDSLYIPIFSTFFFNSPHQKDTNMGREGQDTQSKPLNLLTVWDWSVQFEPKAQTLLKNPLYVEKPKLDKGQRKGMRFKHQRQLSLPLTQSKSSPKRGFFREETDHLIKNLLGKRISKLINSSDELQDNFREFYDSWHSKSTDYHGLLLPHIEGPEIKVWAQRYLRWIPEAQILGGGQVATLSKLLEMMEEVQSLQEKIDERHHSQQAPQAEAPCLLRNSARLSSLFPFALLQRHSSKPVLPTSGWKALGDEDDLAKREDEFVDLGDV
How it was run: (§1)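 Cells were treated in situ with electrophilic probes, then lysed, and the lysates (2 mg/mL protein) were labeled with IA-DTB for 1 h at ambient temperature. After reduction, alkylation and trypsin digestion, labeled peptides were streptavidin-enriched, TMT-labeled and fractionated. Engagement ratios are probe vs DMSO reporter intensities, averaged across replicates.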

STRBP_C142 = target: T2, STRBP_C142 (Homo sapiens, UniProt Q96SI9); test: IA-DTB cysteine engagement; assay type: binding; details: 22Rv1 cells, 20 μM probe, 1 h, relative to DMSO
T2 construct: endogenous in cells; host or cells: 22Rv1
T2 sequence (Q96SI9 1-672): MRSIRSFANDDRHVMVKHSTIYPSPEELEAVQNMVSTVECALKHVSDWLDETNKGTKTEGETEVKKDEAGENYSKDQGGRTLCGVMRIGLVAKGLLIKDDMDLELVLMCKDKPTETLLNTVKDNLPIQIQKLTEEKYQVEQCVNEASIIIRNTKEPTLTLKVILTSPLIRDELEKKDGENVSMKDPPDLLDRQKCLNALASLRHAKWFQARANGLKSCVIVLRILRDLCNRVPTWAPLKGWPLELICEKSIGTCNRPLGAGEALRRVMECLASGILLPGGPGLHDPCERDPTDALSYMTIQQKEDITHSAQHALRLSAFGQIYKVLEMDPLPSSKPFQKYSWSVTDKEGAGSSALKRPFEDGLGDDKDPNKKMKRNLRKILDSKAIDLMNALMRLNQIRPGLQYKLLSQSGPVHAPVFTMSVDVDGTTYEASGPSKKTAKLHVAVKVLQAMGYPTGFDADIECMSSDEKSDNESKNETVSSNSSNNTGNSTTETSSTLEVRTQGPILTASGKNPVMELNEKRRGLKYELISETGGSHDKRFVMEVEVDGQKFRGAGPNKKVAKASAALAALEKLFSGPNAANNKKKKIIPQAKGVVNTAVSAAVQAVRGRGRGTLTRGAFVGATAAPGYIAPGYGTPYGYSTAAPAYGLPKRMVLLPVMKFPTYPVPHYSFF
How it was run: as §1

| Compound | % engagement MTMR12_C152 (MTMR12_C152) | % engagement STRBP_C142 (STRBP_C142) |
| --- | --- | --- |
| C=CC(=O)N1C[C@@H](c2ccc(Br)cc2)[C@H]1C(=O)Nc1cccc2cccnc12 [MY-1A, (2S,3R)-1-acryloyl-3-(4-bromophenyl)-N-(quinolin-8-yl)azetidine-2-carboxamide] | 40.5% | 88.25% |
| C=CC(=O)N1C[C@H](c2ccc(Br)cc2)[C@@H]1C(=O)Nc1cccc2cccnc12 [MY-1B, (2R,3S)-1-acryloyl-3-(4-bromophenyl)-N-(quinolin-8-yl)azetidine-2-carboxamide] | 31% | 8.5% |
| C=CC(=O)N1C[C@H](c2ccc(Br)cc2)[C@H]1C(=O)Nc1cccc2cccnc12 [MY-3A, (2S,3S)-1-acryloyl-3-(4-bromophenyl)-N-(quinolin-8-yl)azetidine-2-carboxamide] | 12% | 16.25% |
| C=CC(=O)N1C[C@H](c2ccc(Br)cc2)[C@H]1C(=O)Nc1cccc2cccnc12 [MY-3B, (2S,3S)-1-acryloyl-3-(4-bromophenyl)-N-(quinolin-8-yl)azetidine-2-carboxamide] | 91.5% | 7.75% |
